We go through one compound from PMC7614683, “A small molecule PI3Kα activator for cardioprotection and neuroregeneration” (Nature, 2023).

Each structure is given as a SMILES string.

The assay has as its target T1, PI3Kα N345K mutant (Homo sapiens, UniProt P42336, N345K).
T1 construct: Full-length human p110α was expressed either in a complex with full-length human p85α (for HTS, biochemistry and HDX-MS); 6xHis tag followed by TEV protease site (N); host or cells: Sf9, baculovirus
Kind of assay: ADP-Glo catalytic activity, oncogenic mutant N345K. It counts as biochemical. How it is done:
Expression and purification of wild-type p110α (Cambridge MRC Laboratory for Molecular Biology (LMB-MRC) plasmid number OP831) in a complex with full-length p85α (LMB-MRC plasmid OP809) was performed as described. The oncogenic mutants G106V (LMB-MRC plasmid JB35), N345K (LMB-MRC plasmid OP661) and E545K (LMB-MRC plasmid OP663) were also purified using this protocol. Briefly, 10 litres of Spodoptera frugiperda (Sf9) cell culture at a density of 1.0 x 10^6 cells/ml were co-infected with a p85α-encoding virus [LMB-MRC plasmid OP809]. and a virus encoding p110α with an N-terminal 6xHis tag followed by a tobacco etch virus (TEV) protease site [LMB-MRC plasmid OP831]. After a 48 h infection at 27°C, cells were harvested and washed with PBS. […]
For characterisation of the effects of 1938 on in vitro PI3K enzymology, all reactions were performed at room temperature with 384 white-polystyrene plates (Corning #3574). […] Data was expressed as velocity (nmol of ADP generated/nmol of enzyme/sec). […] Luminescence was read using a PHERAstar® plate reader with software version 5.41, and analyses were performed using GraphPad Prism 8/9.

T1 sequence (P42336 whole entry N345K): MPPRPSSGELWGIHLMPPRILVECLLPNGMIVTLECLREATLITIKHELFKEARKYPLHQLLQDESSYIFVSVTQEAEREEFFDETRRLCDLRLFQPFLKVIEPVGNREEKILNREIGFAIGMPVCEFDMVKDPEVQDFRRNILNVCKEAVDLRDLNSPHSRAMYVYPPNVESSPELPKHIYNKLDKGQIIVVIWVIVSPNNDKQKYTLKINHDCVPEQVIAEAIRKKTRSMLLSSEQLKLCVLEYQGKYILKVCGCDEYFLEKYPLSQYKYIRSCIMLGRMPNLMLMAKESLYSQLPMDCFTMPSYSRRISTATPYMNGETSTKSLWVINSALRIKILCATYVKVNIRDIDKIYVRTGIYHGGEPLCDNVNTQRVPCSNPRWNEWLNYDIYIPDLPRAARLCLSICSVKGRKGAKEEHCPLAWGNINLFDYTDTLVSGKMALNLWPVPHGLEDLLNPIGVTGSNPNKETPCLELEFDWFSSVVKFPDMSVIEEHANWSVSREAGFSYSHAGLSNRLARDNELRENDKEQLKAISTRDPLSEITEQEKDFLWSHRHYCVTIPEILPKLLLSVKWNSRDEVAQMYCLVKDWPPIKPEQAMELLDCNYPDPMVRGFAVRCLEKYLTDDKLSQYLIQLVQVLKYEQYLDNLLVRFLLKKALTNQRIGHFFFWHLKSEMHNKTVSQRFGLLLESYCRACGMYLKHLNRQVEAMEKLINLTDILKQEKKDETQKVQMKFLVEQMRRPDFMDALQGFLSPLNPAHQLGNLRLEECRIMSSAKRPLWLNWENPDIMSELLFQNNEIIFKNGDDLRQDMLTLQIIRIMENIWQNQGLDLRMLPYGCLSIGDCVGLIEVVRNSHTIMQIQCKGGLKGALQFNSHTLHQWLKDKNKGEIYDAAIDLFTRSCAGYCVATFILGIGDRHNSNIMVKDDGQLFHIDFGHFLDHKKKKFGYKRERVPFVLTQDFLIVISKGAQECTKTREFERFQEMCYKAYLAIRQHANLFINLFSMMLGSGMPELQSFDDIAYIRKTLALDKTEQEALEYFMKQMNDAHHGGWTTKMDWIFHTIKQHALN
T1 sequence (P27986 whole entry partner): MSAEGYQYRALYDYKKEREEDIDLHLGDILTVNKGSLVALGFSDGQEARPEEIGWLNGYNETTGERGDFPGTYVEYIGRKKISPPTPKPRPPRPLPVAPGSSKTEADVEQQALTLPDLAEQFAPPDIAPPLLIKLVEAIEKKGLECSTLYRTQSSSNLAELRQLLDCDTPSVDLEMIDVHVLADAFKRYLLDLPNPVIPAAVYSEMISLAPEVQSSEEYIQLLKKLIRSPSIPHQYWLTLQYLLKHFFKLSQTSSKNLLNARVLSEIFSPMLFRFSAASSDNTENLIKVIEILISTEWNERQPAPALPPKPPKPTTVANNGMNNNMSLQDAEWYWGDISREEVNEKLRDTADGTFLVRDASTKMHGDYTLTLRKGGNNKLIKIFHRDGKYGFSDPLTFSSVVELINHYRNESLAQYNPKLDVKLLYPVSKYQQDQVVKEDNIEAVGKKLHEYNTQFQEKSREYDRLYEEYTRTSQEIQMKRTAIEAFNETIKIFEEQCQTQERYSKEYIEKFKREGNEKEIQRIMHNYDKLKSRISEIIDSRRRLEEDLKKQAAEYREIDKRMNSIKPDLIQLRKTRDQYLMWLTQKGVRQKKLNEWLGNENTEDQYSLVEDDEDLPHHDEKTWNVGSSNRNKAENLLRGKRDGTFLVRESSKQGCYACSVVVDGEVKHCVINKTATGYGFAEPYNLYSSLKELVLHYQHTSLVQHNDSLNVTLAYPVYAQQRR

`CCN1CCN(c2ccc(Nc3cc(Nc4cccc5c4N(C(C)=O)CC5)ccn3)cc2)CC1` [Compound 1938]: the “activation of N345K mutant” value is listed as “levels comparable with stimulation with pY”.
